Experimental data: patent US20100323434A1, “Compartmentalized Nerve Culture System” (priority 2009, published 2010)

Columns and labels:
[1] = tested on: Primary hippocampal neurons; assay: Oxidative stress by H2O2 added selectively to the somal compartment of the microfluidic device; format: cell-based; conditions: added to somal compartment of one group of neuronal cell bodies (2 mM peroxide media); over the course of 24-72 h
[2] = tested on: Dorsal root ganglia (DRG) neuronal cultures; format: cell-based, rats; conditions: rat, 24 h, 25 ng/mL
Description: A two-step photolithographic process was utilized to create the master mold. Silicon wafers (University Wafer, MA) were coated with SU-8 2002 (Microchem; MA), spun, and soft baked using parameters specified by the manufacturer to yield a resist thickness of 2.5 microns. An array of microchannels, each with dimensions: width=10 microns, length=500 microns, were defined by UV light exposure through a high resolution DPI transparency (Cad/Art, OR). The exposed substrate was once again baked, to enhance polymer cross-linking post exposure, and developed as stated in the resist technical sheet to fully define the microchannels. […]
In order to identify the susceptibility of axons and cell bodies to paclitaxel, we added 25 ng/mL of paclitaxel to either axon or cell body chambers and continued to culture the DRGs for another 24 hours. Once images of the fluorescently labeled cells and axons were captured, we used ImageJ to calculate axon lengths and calculated percent change in axon length compared to 24 hours before taxol exposure.
Studies on the neuroprotective effect of EPO were performed with concurrent administration of paclitaxel, which was applied to either the neuronal cell body or axonal side. […] Axon degeneration was defined as the change in axon length over the total axon length expressed as a percentage.

SMILES	neuronal cell death and axonal degeneration [1]	decrease in the length of axons [2]
OO [H2O2]	induction of neuronal cell death and accompanying axonal degeneration	
CC(=O)O[C@H]1C(=O)[C@@]2(C)[C@H]([C@H](OC(=O)c3ccccc3)[C@]3(O)C[C@H](OC(=O)[C@H](O)[C@@H](NC(=O)c4ccccc4)c4ccccc4)C(C)=C1C3(C)C)[C@]1(OC(C)=O)CO[C@@H]1C[C@@H]2O [paclitaxel, Paclitaxel, reference compound]		28.6 ± 11.2%
